Consider 20 molecules from US20250228239A1, “MOLECULES HAVING PESTICIDAL UTILITY, AND INTERMEDIATES, COMPOSITIONS, AND PROCESSES, RELATED THERETO” (priority 2024, published 2025).

The structures appear in SMILES notation. Where two headings read alike, the source gives them in different places.

In test [1] the test system is Cabbage Looper (Trichoplusia ni, TRIPNI). Kind of test: Bioassays on Cabbage Looper (CL), 128-well diet tray assay. The settings on record: Trichoplusia ni. The class given is in vivo. In short, it runs like this: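 Percent mortality, averaged across eight replicate wells, after second-instar larvae (1–5 per well) fed for five to seven days on diet dosed at 50 μg/cm^2. Compound was applied in acetone-water 90:10 and dried; trays kept vented at 25° C under 14:10 photoperiod.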

Test [2] deals with Beet Armyworm (Spodoptera exigua, LAPHEG). Description: Bioassays on Beet Armyworm (BAW), 128-well diet tray assay. The format is in vivo. Conditions: Spodoptera exigua. A digest of the protocol:
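Second-instar larvae, one to five per well, were placed on artificial diet surface-treated with 50 μg/cm^2 compound in 90:10 acetone-water, eight wells per treatment. Trays were held 5–7 days at 25 °C, 14:10 light-dark. Percent mortality per well was averaged over eight wells.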

[3] abbreviates: Cabbage Looper, Table ABC / ABC-DP rating, read-out: CL rating.
Where [4] appears, read: Beet Armyworm, Table ABC / ABC-DP rating, read-out: BAW rating.
The mark [5] stands for this setting: Table ABC: Biological Results, species CL, read-out: CL.
The mark [6] stands for this setting: Table ABC: Biological Results, species BAW, read-out: BAW.
The mark [7] stands for this setting: Cabbage Looper, rating class, read-out: CL.
Where [8] appears, read: Beet Armyworm, rating class, read-out: BAW.

For the molecule `O=C(COCC(F)(F)F)Nc1c(F)ccc(NC(=O)c2cc(NC(=O)[C@H]3[C@H](c4ccc(Cl)c(Cl)c4)C3(Cl)Cl)ccc2Cl)c1F` [F1863, 2-Chloro-5-((1R,3R)-2,2-dichloro-3-(3,4-dichlorophenyl)cyclopropane-1-carboxamido)-N-(2,4-difluoro-3-(2-(2,2,2-trifluoroethoxy)acetamido)phenyl) benzamide], the pest or weed control at 50 µg/cm2 in test [1] (setting [3]) and in test [2] (setting [4]) was 50 to 100% in each case.
With `Nc1c(F)cccc1NC(=O)c1cc(NC(=O)[C@H]2[C@H](c3ccc(F)c(Cl)c3)C2(Cl)Cl)ccc1Cl` [F1133, N-(2-Amino-3-fluorophenyl)-2-chloro-5-((1R,3R)-2,2-dichloro-3-(3-chloro-4-fluorophenyl)cyclopropane-1-carboxamido)benzamide], the pest or weed control at 50 µg/cm2 in test [1] (setting [5]) and in test [2] (setting [6]) was 50 to 100% in each case.
As a reminder, the mortality is the percentage killed. Consider `CC(C)(C)OC(=O)NNC(=O)c1cc(NC(=O)[C@H]2[C@H](c3cc(Cl)cc(Cl)c3)C2(Cl)Cl)ccc1Cl` (relative stereo) [F2566, trans-tert-butyl 2-(2-chloro-5-(2,2-dichloro-3-(3,5-dichlorophenyl)cyclopropane-1-carboxamido)benzoyl)hydrazine-1-carboxylate], for which the mortality at 50 µg/cm2 in test [1] (168 h, second instar larvae, 50 μg/cm^2 of test molecule on artificial diet, 25° C., five to seven days, average of eight wells, read-out: CL % Control (or Mortality) rating) is 50 to 100%; in test [2] (168 h, second instar larvae, 50 μg/cm^2 of test molecule on artificial diet, 25° C., five to seven days, average of eight wells, read-out: BAW % Control (or Mortality) rating) it was 50 to 100%. Also, the pest or weed control at 50 µg/cm2 in test [1] (setting [3]) and in test [2] (setting [4]) was 50 to 100% each time.
`CCC(=O)Nc1c(F)ccc(NC(=O)c2cc(NC(=O)[C@H]3[C@H](c4ccc(Cl)c(Cl)c4)C3(Cl)Cl)ccc2Cl)c1F` [F1472, 2-Chloro-5-((1R,3R)-2,2-dichloro-3-(3,4-dichlorophenyl)cyclopropane-1-carboxamido)-N-(2,4-difluoro-3-propionamidophenyl)benzamide]: the pest or weed control at 50 µg/cm2 in test [1] (setting [7]) and in test [2] (setting [8]) was 50 to 100% each time.
In the case of `Nc1cc(NC(=O)c2cc(NC(=O)[C@H]3[C@H](c4ccc(Cl)c(Cl)c4)C3(Cl)Cl)cc(F)c2Cl)c(F)cc1F` [F1396, N-(5-Amino-2,4-difluorophenyl)-2-chloro-5-((1R,3R)-2,2-dichloro-3-(3,4-dichlorophenyl)cyclopropane-1-carboxamido)-3-fluorobenzamide], the pest or weed control at 50 µg/cm2 in test [1] (setting [7]) and in test [2] (setting [8]) was 50 to 100% throughout.
For the molecule `Nc1c(F)ccc(NC(=O)c2cc(NC(=O)[C@H]3[C@H](c4ccc(Cl)c(C(F)(F)F)c4)C3(Cl)Cl)ccc2Cl)c1F` [F1631, N-(3-Amino-2,4-difluorophenyl)-2-chloro-5-((1R,3R)-2,2-dichloro-3-(4-chloro-3-(trifluoromethyl)phenyl)cyclopropane-1-carboxamido)benzamide], the pest or weed control at 50 µg/cm2 in test [1] (setting [7]) and in test [2] (setting [8]) was 50 to 100% throughout.
In the case of `CCNC(=O)c1cc(NC(=O)[C@H]2[C@H](c3ccc(F)c(Cl)c3)C2(Cl)Cl)cc(Cl)c1F` (relative stereo) [F2047, trans-3-Chloro-5-(2,2-dichloro-3-(3-chloro-4-fluorophenyl)cyclopropane-1-carboxamido)-N-ethyl-2-fluorobenzamide], the pest or weed control at 50 µg/cm2 in test [1] (setting [3]) and in test [2] (setting [4]) was 50 to 100% each time.
For `Cc1cc(NC(=O)[C@H]2[C@H](c3cc(Cl)c(Cl)c(Cl)c3)C2(Cl)Cl)cc(C(=O)Nc2cc(NC(=O)C(F)(F)F)c(F)cc2F)c1Cl` [F1499, 2-Chloro-5-((1R,3R)-2,2-dichloro-3-(3,4,5-trichlorophenyl)cyclopropane-1-carboxamido)-N-(2,4-difluoro-5-(2,2,2-trifluoroacetamido)phenyl)-3-methylbenzamide], the pest or weed control at 50 µg/cm2 in test [1] (setting [7]) and in test [2] (setting [8]) was 50 to 100% each time.
Turning to `O=C(Nc1c(F)ccc(NC(=O)C(F)(F)Br)c1F)c1cc(NC(=O)[C@H]2[C@H](c3ccc(F)c(C(F)(F)F)c3)C2(Cl)Cl)cc(F)c1Cl` [F1356, N-(3-(2-Bromo-2,2-difluoroacetamido)-2,6-difluorophenyl)-2-chloro-5-((1R,3R)-2,2-dichloro-3-(4-fluoro-3-(trifluoromethyl)phenyl)cyclopropane-1-carboxamido)-3-fluorobenzamide], the pest or weed control at 50 µg/cm2 in test [1] (setting [5]) and in test [2] (setting [6]) was 50 to 100% in each case.
Take `O=C(Nc1c(F)ccc(NC(=O)c2cc(NC(=O)[C@H]3[C@H](c4ccc(F)c(C(F)(F)F)c4)C3(Cl)Cl)ccc2Cl)c1F)c1cnns1` [F1820, N-(3-(2-Chloro-5-((1R,3R)-2,2-dichloro-3-(4-fluoro-3-(trifluoromethyl)phenyl)cyclopropane-1-carboxamido)benzamido)-2,6-difluorophenyl)-1,2,3-thiadiazole-5-carboxamide]: the pest or weed control at 50 µg/cm2 in test [1] (setting [3]) and in test [2] (setting [4]) was 50 to 100% each time.
Take `C=CCC(=O)Nc1c(F)ccc(NC(=O)c2cc(NC(=O)[C@H]3[C@H](c4ccc(F)c(Br)c4)C3(Cl)Cl)ccc2Cl)c1F` [F1880, 5-((1R,3R)-3-(3-Bromo-4-fluorophenyl)-2,2-dichlorocyclopropane-1-carboxamido)-N-(3-(but-3-enamido)-2,4-difluorophenyl)-2-chlorobenzamide]: the pest or weed control at 50 µg/cm2 in test [1] (setting [3]) and in test [2] (setting [4]) was 50 to 100% throughout.
As for `O=C(Nc1ccc(F)c(NC(=O)C2CCCO2)c1F)c1cc(NC(=O)[C@H]2[C@H](c3ccc(Cl)c(Cl)c3)C2(Cl)Cl)ccc1Cl` (stereo partly drawn) [F1611, N-(3-(2-Chloro-5-((1R,3R)-2,2-dichloro-3-(3,4-dichlorophenyl)cyclopropane-1-carboxamido)benzamido)-2,6-difluorophenyl)tetrahydrofuran-2-carboxamide], the pest or weed control at 50 µg/cm2 in test [1] (setting [7]) and in test [2] (setting [8]) was 50 to 100% in each case.
As for `CC(=O)Nc1ccc(F)c(NC(=O)c2cc(NC(=O)[C@H]3[C@H](c4cc(Cl)c(Cl)c(Cl)c4)C3(Cl)Cl)ccc2Cl)c1F` [F1515, N-(3-Acetamido-2,6-difluorophenyl)-2-chloro-5-((1R,3R)-2,2-dichloro-3-(3,4,5-trichlorophenyl)cyclopropane-1-carboxamido)benzamide], the pest or weed control at 50 µg/cm2 in test [1] (setting [7]) and in test [2] (setting [8]) was 50 to 100% throughout.
For `O=C(Nc1c(F)cc(F)cc1F)c1cc(NC(=O)[C@@H]2[C@@H](c3cc(Cl)cc(Cl)c3)C2(Cl)Cl)ccc1Cl` (single isomer, unassigned) [F1378], the values for the pest or weed control at 50 µg/cm2 in test [1] (setting [5]) and in test [2] (setting [6]) were 50 to 100% and 0 to 50%, respectively.
Take `O=C(CC1CC1)NNC(=O)c1cc(NC(=O)[C@H]2[C@H](c3cc(Cl)cc(Cl)c3)C2(Cl)Cl)ccc1Cl` (relative stereo) [F2528, trans-2,2-Dichloro-N-(4-chloro-3-(2-(2-cyclopropylacetyl)hydrazine-1-carbonyl)phenyl)-3-(3,5-dichlorophenyl)cyclopropane-1-carboxamide]: the pest or weed control at 50 µg/cm2 in test [1] (setting [3]) and in test [2] (setting [4]) was 50 to 100% each time.
Consider `Cc1cc(C2C(C(=O)Nc3ccc(Cl)c(C(=O)Nc4ccc(F)c(N)c4F)c3)C2(Cl)Cl)cc(C(F)(F)F)c1F` (stereo not drawn) [F1069, cis-N-(3-Amino-2,4-difluorophenyl)-2-chloro-5-((cis)-2,2-dichloro-3-(4-fluoro-3-methyl-5-(trifluoromethyl)phenyl)cyclopropane-1-carboxamido)benzamide], for which the pest or weed control at 50 µg/cm2 in test [1] (setting [5]) and in test [2] (setting [6]) was 50 to 100% throughout.
On to `O=C(Nc1ccc(F)c(NC(=O)C(F)(F)F)c1F)c1cc(NC(=O)[C@H]2[C@H](c3ccc(F)c(C(F)(F)F)c3)C2(Cl)Cl)cc(F)c1F` [F1572, 5-((1R,3R)-2,2-Dichloro-3-(4-fluoro-3-(trifluoromethyl)phenyl)cyclopropane-1-carboxamido)-N-(2,4-difluoro-3-(2,2,2-trifluoroacetamido)phenyl)-2,3-difluorobenzamide], for which the pest or weed control at 50 µg/cm2 in test [1] (setting [7]) and in test [2] (setting [8]) was 50 to 100% in each case.
Take `O=C(NCC(F)(F)F)c1cc(NC(=O)[C@H]2[C@H](c3ccc(F)c(F)c3)C2(Cl)Cl)ccc1Cl` [F2099, 2-Chloro-5-((1R,3R)-2,2-dichloro-3-(3,4-difluorophenyl)cyclopropane-1-carboxamido)-N-(2,2,2-trifluoroethyl)benzamide]: the pest or weed control at 50 µg/cm2 in test [1] (setting [3]) and in test [2] (setting [4]) was 50 to 100% in each case.
On to `CN(C(=O)c1cc(NC(=O)[C@H]2[C@H](c3ccc(Cl)c(Cl)c3)C2(Cl)Cl)ccc1Cl)c1ccc(F)c(N)c1F` [F1056, N-(3-Amino-2,4-difluorophenyl)-2-chloro-5-((1R,3R)-2,2-dichloro-3-(3,4-dichlorophenyl)cyclopropane-1-carboxamido)-N-methylbenzamide], for which the pest or weed control at 50 µg/cm2 in test [1] (setting [5]) and in test [2] (setting [6]) was 50 to 100% each time.
Take `O=C(Nc1ccc(F)c(NC(=O)C(F)(F)C(F)F)c1F)c1cc(NC(=O)[C@H]2[C@H](c3cc(Cl)c(Cl)c(Cl)c3)C2(Cl)Cl)ccc1Cl` [F1567, 2-Chloro-5-((1R,3R)-2,2-dichloro-3-(3,4,5-trichlorophenyl)cyclopropane-1-carboxamido)-N-(2,4-difluoro-3-(2,2,3,3-tetrafluoropropanamido)phenyl)benzamide]: the pest or weed control at 50 µg/cm2 in test [1] (setting [7]) and in test [2] (setting [8]) was 50 to 100% each time.
